From patent publication US12234484B2, “Culture medium for pluripotent stem cells” (PROMOCELL GMBH, priority 2017, dated 2025)

Tests used:
[1] = tested on: stem cells; settings: cultured in the absence of FGF2; cited from earlier work
[2] = cited from earlier work; for biological half-life: under cell culture conditions
[3] = tested on: hiPS cell line SBI #SC101A-1; assay: hPSC culture, microscopic analysis of morphological growth pattern and proliferation; assay type: cell-based, human; settings: defined, feeder-free culture on vitronectin; Example 1 medium containing only the named factor(s); no FGF-2
Procedure: The culture vessel was coated with 0.5 μg/cm^2 of recombinant human vitronectin as ECM. For this, 100 μl of a diluted vitronectin solution per cm^2 of culture vessel surface is applied to the culture vessel with. The coated culture vessel is left for 2 hours at room temperature. The vitronectin solution was aspirated just before seeding the cells.
The cell line used in this experiment is the human foreskin fibroblast derived hiPS cell line SBI #SC101A-1 (obtainable from System Biosciences (SBI), Palo Alto, under the defined reference number).
The stem cell culture medium was prepared as described in Example 1. For cryopreserved cells, a ROCK-Inhibitor (10 μM Y-27632 or 2 μM Thiazovivin) is added to the stem cell culture medium. Alternatively, for existing proliferating cultures a clump passage was performed as described in Example 3 below.
The hPSCs were seeded in a 1:2 to 1:3 ratio (relative to the volume of the tissue culture vessel) into the ECM coated tissue culture vessel using an appropriate amount of culture medium. For example, 2-3 ml per well are used for 6-well plates and 15-25 ml for T-75 flasks.
After plating, the subcultured hPSCs were allowed to attach overnight (12-24 hours).
A medium change was performed: the stem cell culture medium including non-attached cells was aspirated, washed once with Dulbecco's PBS, w/o Ca^2+/Mg^2+ and the cells were provided with fresh culture medium (w/o ROCK-Inhibitors).
A media change was performed every 1-3 days.
The stem cell culture medium was aspirated and the hPSCs were washed twice with Dulbecco's PBS, w/o Ca^2+/Mg^2+. Next, 200-300 μl/cm^2 of dissociation buffer was added and the solution was incubated for 6-10 minutes in the incubator at 37° C. and 5% CO2. The dissociation buffer was carefully aspirated and 1-5 ml of fresh culture medium was added. The colonies were flushed away from the surface using a serological pipet. In order to maintain cell clumps of sufficient size flushing of more than 4-5 times was avoided. Then, cell clumps were dispensed into new ECM-coated culture vessels with fresh stem cell culture medium and the culture was continued according to the cell attachment step (step 2.3) of Example 2.
Induced pluripotent stem cells were cultured in the presence of the stem cell culture medium according to Example 1 without trimipramine in order to reproduce published observations that activin a on its own cannot fully support undifferentiated maintenance of most hPSC lines (Vallier et al., 2005; Xiao et al., 2006). Initiation of the hPSC culture was performed according to Example 2, followed by subculturing the cells according to Example 3.
It was also aimed to reproduce the published partial self-renewal support capabilities of trimipramine in human pluripotent stem cells (Kumagai et al., 2013). […]

**Q.** With `CCN(CC)CCCC(C)Nc1c2ccc(Cl)cc2nc2ccc(OC)cc12` (centres unmarked) [mepacrine] as the molecule, how does the “expression of pluripotency markers SSEA-3, SSEA-4 TRA-1-60, TRA-1-81 and OCT4” value (“expression” below) [1] read?
**A.** induce the expression of known pluripotency markers

**Q.** Which “expression” value [1] does the source give for `CCN(CC)C(C)CN1c2ccccc2Sc2ccccc21` (centres unmarked) [profenamine] here?
**A.** induce the expression of known pluripotency markers

**Q.** Which biological half-life [2] does the source give for “TGF-β1: growth factor (ALK5 ligand) traditionally used in hPSC media” here?
**A.** 50 minutes

**Q.** With `CC(CN1c2ccccc2Sc2ccccc21)N(C)C` (centres unmarked) [promethazine] as the molecule, how does the “expression” value [1] read?
**A.** induce the expression of known pluripotency markers

**Q.** With “FGF-2: growth factor (FGFR ligand) traditionally used in hPSC media” as the molecule, how does the biological half-life [2] read?
**A.** 5-7 hours

**Q.** Which results are given for `CC(CN(C)C)CN1c2ccccc2CCc2ccccc21` (centres unmarked) [trimipramine]?
**A.** cell proliferation / expansion of hPSC [3]: not sufficient to effectively expand the human pluripotent stem cells; maintenance of undifferentiated state (morphological phenotype) [3]: able to maintain the prototypical pluripotent morphological phenotype; half-life [2]: 23 h; expression of pluripotency markers SSEA-3, SSEA-4 TRA-1-60, TRA-1-81 and OCT4 [1]: induce the expression of known pluripotency markers

B1: activin a: homodimer of the inhibin beta A subunit (UniProtKB P08476), member of the TGF-β superfamily (protein, UniProt P08476 311-426, looked up)
Inhibin beta A chain: GLECDGKVNICCKKQFFVSFKDIGWNDWIIAPSGYHANYCEGECPSHIAGTSGSSLSFHSTVINHYRMRGHSPFANLKSCCVPTKLRPMSMLYYDDGQNIIKKDIQNMIVEECGCS
modifications: Inhibin beta A chain
notes: homodimer of the inhibin beta A subunit (UniProtKB P08476), member of the TGF-β superfamily
**Q.** For B1, which “cell proliferation / expansion of hPSC” value [3] is on record?
**A.** significant cell proliferation

**Q.** And the “maintenance of undifferentiated state (morphological phenotype)” value [3]?
**A.** not able to robustly support the maintenance of the tested hPSC line in an undifferentiated state
